Data set [1] relates to plasma clots (human plasma, tPA-induced lysis). Description: Plasma clot lysis assay. The format is biochemical. An excerpt:
To determine the inhibitory effect of the compounds of the invention on the degradation of plasma clots.
3. […] The time corresponding to the median of the absorption value in the descending section-the time corresponding to the median of the absorption value in the ascending section is the plasma clot degradation time (Clot lysis time).
Taking the log value of the compound concentration as the X-axis, and the percentage inhibition rate as the Y-axis, and dose-response curves were fitted with the software GraphPad Prism 5 by using log (inhibitor) vs. Response-Variable slope to derive IC50 values of compounds inhibiting the degradation of plasma clots. Y=min+(max−min)/(1+10^((LogIC50−X)×Hillslope). Formula: […]

Data set [2] deals with human whole blood under hyperfibrinolytic state induced by rtPA. Description: Human whole blood thromboelastography (TEG) assay. It is filed as biochemical. The note with it: for CLT doubling: clot lysis time at the doubling concentration. Here is the method:
The antifibrinolytic effect of the compounds of the invention in the human whole blood under hyperfibrinolytic state induced by rtPA (recombinant tissue […]) was determined using the Thromboelastogram (TEG).
• Source of human blood: All human blood used in the experiments was provided by healthy volunteers. 3. Experimental Procedure • (1) Preparation of test substance solution: Accurately weigh the test substance, and use normal saline to prepare the test substance to the following concentrations (100×test concentration): • Tranexamic acid (μM): 3000, 1000, 300, 100, 30, 10, 0; • Example 6 (μM): 1000, 300, 100, 30, 10, 3, 0. • (2) Preparation of rt-PA (alteplase for injection): the active dry powder of rtPA was formulated to 25 μg/mL using water for injection in the rtPA package. • (3) Reaction system:
Mix 392 μL of sodium citrate anticoagulated whole blood with 4 μL rtPA and 4 μL test substance, reacted at room temperature, and TEG curve was detected for 2 hours to obtain the time parameter of CLT (clot lysis time). • (4) Result calculations
Taking the log value of the compound concentration as the X-axis and the CLT value as the Y-axis, and dose-response curves were fitted using log (inhibitor) vs. Response-Variable slope (GraphPad Prism 8 software).
The concentration of compound corresponding to doubling the CLT time was calculated.

A short description of data set [3]: Rat PK assay, intravenous administration. The note with it: male, Sprague-Dawley, plasma, SD rats, 1 mg/kg single dose. The format is in vivo. As to the method:
The pharmacokinetic profile of the compounds of the invention in rats was studied by measuring the plasma drug concentration after intravenous administration.
Male Sprague-Dawley rats of SPF grade, 3 rats each group, were obtained from: Shanghai Sippe-Bk Lab Animal Co., Ltd.
The compound was weighed and dissolved in normal saline to prepare a 0.2 mg/mL solution for intravenous administration.
The day before the experiment, the rats were fasted overnight and fed 4 hours after administration.
On the day of the experiment, the rats were administered according to the scheme in the table below. At each time point after administration, approximately 200 μL of blood was collected from the jugular vein and placed in heparin sodium anticoagulation tubes. Blood samples were placed on ice after collection, and the plasma was separated by centrifugation within 1 hour (centrifugation conditions: 6800 g, 6 minutes, 2-8° C.). The separated plasma was stored in a refrigerator at −80° C. for biological sample analysis.
The compound concentration in rat plasma was determined by the following method: • Instruments and equipment: LC-MS/MS-19 (TQ5500, AB SCIEX, USA). • Internal standard: warfarin. • Chromatographic column: ACQUITY UPLC BEH C18, model 1.7 um 2.1*50 mm, purchased from Shenzhen Novah Chemical Technology Co., Ltd.; • Flow rate: 0.60 ml/min. • Column temperature: 40° C. • Mobile phase A: 0.1% formic acid in water. • Mobile phase B: 0.1% formic acid in acetonitrile.
Take 30 μL of the plasma sample prepared from item “3”, add 300 μL MeOH containing 100 ng/ml of internal standard to precipitate protein. The mixture was vortexed for 1 minute and centrifuged at 18000 g for 7 minutes. The supernatant was transferred to a 96-well plate. Inject 4 μL of supernatant into LC-MS/MS for analysis.
The concentration of the compound in rat plasma was determined by the above-mentioned LC-MS/MS analysis method, and pharmacokinetic parameters were calculated by using Phoenix WinNonlin7.0 software according to blood concentration data of different time points.

The next data set relates to fibrinolysis. As to conditions: relative to EACA; cited from earlier work.

For the molecule `O=P(O)(O)c1ccc2c(n1)CCNC2` [Example 6, (5,6,7,8-tetrahydro-1,6-naphthyridin-2-yl) Phosphonic Acid Monohydrate], in data set [1] (relative inhibition of plasma clot lysis vs tranexamic acid in vitro, plasma clot lysis), the “IC50 ratio (IC50 Examples/IC50 Tranexamic acid)” value is given as 0.09. Besides, in data set [2], the “Compound concentration for doubling CLT” value was determined as 0.12 µM and the CLT doubling worked out at 37.06 min.
For `NC[C@H]1CC[C@H](C(=O)O)CC1` [Tranexamic acid, trans-4-aminomethyl-cyclohexane-carboxylic acid, reference compound], the IC50 (commonly the midpoint of a concentration-inhibition curve) in data set [1] (human plasma, tPA, clot lysis time by absorbance at 405 nm, read-out: IC50 value for inhibition of plasma clot lysis) was 4.75 µM. Further, in data set [3], the AUC – broadly, concentration integrated over time – is 2820 ng·h/mL; the maximum concentration (Cmax) (as a rule, the maximum level reached in the sampled fluid or tissue) came out at 4410 ng/mL; the clearance (usually the rate of elimination divided by the concentration) is 5.78 mL/min/kg; the half-life (in general, the time needed for the level to fall by half in the phase considered) is 1.28 h. Also, in data set [2], the “Compound concentration for doubling CLT” value was 1.78 µM and the CLT doubling is 34.66 min. In addition, the “anti-fibrinolytic activity, times that of EACA” value in the data set with fibrinolysis is recorded as “about 10 times”.

Source of the values: patent US12649755B2, “Plasmin inhibitor, preparation method therefor and application thereof” (SCINNOHUB PHARMACEUTICAL CO., LTD, priority 2020, dated 2026).
